No end group written: not given here.
Experiments:
[1] = system: cancer cell lines; experiment: Apoptosis assay, cancer cells (cell line not given); assay type: cell-based
[2] = system: HT-29 (human colon adenocarcinoma); experiment: Apoptosis assay, HT-29 cells; settings: for apoptotic activity / morphology (in words): 5 μM, 4 hours; for apoptotic activity, panel of cell lines (in words): peptide fragment: 6 hours
Description: Prostate cancer cell line LNCAP was routinely used for the isolation of Apogen P-1 and Apogen P-2, whereas leukemia cell line HL-60 was used for the isolation of Apogen L. The methods of assays were as follows: LNCAP or HL-60 (1,000 cells) was seeded in 10 microliters RPMI containing 15% or 20% Fetal bovine serum, penicillin and streptomycin at 37 degrees, 5% CO2 in Microtray plates (25 μl wells, Robbins Scientific Corp.). The tested sample (10 μl) was added 3-4 hours after cells were seeded. After incubation of the tested sample with cells for 15 hours, two microliters of Hoechst dye (0.03 ng/ml in PBS) was added. Two hours later, cells that were stained with Hoechst dye were examined under fluorescence microscope. […] The percentage of apoptotic cells was calculated by the following equation:
The DNA condensation, DNA fragmentation and peripheral crescents of the nuclei are characteristics of a cell under apoptosis.

[3] = system: CCD 39 Lu (normal lung fibroblast); experiment: Apoptosis assay, CCD 39 Lu cells; assay type: cell-based, human
[4] = system: p3HR-1 (human Burkitt lymphoma); experiment: Apoptosis assay, p3HR-1 cells; assay type: cell-based; settings: peptide fragment: 6 hours
[5] = system: CCD-18 Co (human normal colon fibroblast); experiment: Apoptosis assay, CCD-18 Co cells; assay type: cell-based
Source text: Zinc charged alpha 1-acid glycoprotein has no effect on CCD 18Co cells (human normal colon fibroblast).

[6] = system: HL-60 (leukemia) cells; experiment: Cell death (apoptosis) assay, HL-60 cells; assay type: cell-based, human; settings: peptide fragment: 6 hours
Description: Fetuin purified from fetal bovine serum by the procedure described above was dissolved in phosphate buffer saline (PBS). The free Zinc Acetate and Barium Acetate were removed by repetitive concentration. Fetuin was tested in LNCaP and HL-60 cells. […] Fetuin (in 10 μl PBS) at concentration of 100 ng/ml was added 3-4 hours after the cells were seeded.

[7] = system: LNCaP (prostate cancer) cells; experiment: Cell death (apoptosis) assay, LNCaP cells; assay type: cell-based, human
Description: […] The free Zinc Acetate and Barium Acetate were removed by repetitive concentration. Fetuin was tested in LNCaP and HL-60 cells. […] Fetuin (in 10 μl PBS) at concentration of 100 ng/ml was added 3-4 hours after the cells were seeded.

[8] = system: CCD25 Lu (human normal lung); experiment: Apoptosis assay, CCD25 Lu cells; assay type: cell-based; settings: peptide fragment: 6 hours
[9] = system: Calu-1 (human lung carcinoma); experiment: Apoptosis assay, Calu-1 cells; assay type: cell-based; settings: peptide fragment: 6 hours
[10] = system: tumor cell line P388D1 (leukemia); experiment: Effect of fetal fetuin on leukemia-bearing mice; assay type: in vivo, DBA/2 female mice
Description: Forty DBA/2 female mice (17-20 grams; Simonsen Laboratories, Inc., Gilroy, Calif.) kept on a standard diet and water ad libitum were inoculated with tumor cell line P388D1 (ATCC cell line number CCL46). The mice were randomly segregated into groups of ten (10). Zinc-charged fetal fetuin (10 mg/ml) were intraperitoneally injected into group I at 0.002 ml/mouse, group II at 0.02 ml/mouse and group III at 0.2 ml/mouse. Group IV was the control group, which was injected with 0.5 ml of saline solution. The injections were continued for 10 days. Mortalities were recorded for 60 days. The results were expressed as the percentage increase in life span (ILS): […]

[11] = system: Hep G2 (Human hepatoma); experiment: Apoptosis assay, Hep G2 cells
[12] = various concentrations of SEQ ID NO: 1

Q: With “alpha 1-acid glycoprotein (without zinc): alpha 1-acid glycoprotein pre-incubated with EDTA without recharging with zinc [reference compound]” as the molecule, how does the “induction of apoptosis in cancer/tumor cell lines (in words)” value [1] read?
A: Its value is “failed to induce apoptosis”.

Q: And the “apoptotic activity / morphology (in words)” value [2]?
A: Its value is “no apoptotic activity was seen”.

Q: Which results are given for “zinc charged alpha 1-antitrypsin: alpha 1-antitrypsin (Sigma), EDTA treated and charged with zinc acetate”?
A: apoptotic activity, panel of cell lines (in words) [3]: no effect was seen; apoptotic activity, panel of cell lines (in words) [4]: induced apoptosis; apoptotic activity / morphology (in words) [2]: caused cell shrinkage and membrane blebbing; apoptotic activity, panel of cell lines (in words) [2]: induced apoptosis; apoptotic activity, panel of cell lines (in words) ([5]; peptide fragment: 6 hours): no effect was seen; apoptotic activity, panel of cell lines (in words) [6]: induced apoptosis; apoptotic activity, panel of cell lines (in words) [7]: induced apoptosis; apoptotic activity, panel of cell lines (in words) [8]: no effect was seen; apoptotic activity, panel of cell lines (in words) [9]: induced apoptosis

Q: Which “mice that survived more than 58 days” value ([10]; 100 mg/Kg intraperitoneally for 10 days, untreated 100% dead after 24 days) does the source give for “fetal fetuin: Zinc-charged fetal fetuin (10 mg/ml) injected intraperitoneally into mice” here?
A: The value was 80%.

Q: What about the “increased life span (ILS)” value ([10]; leukemia-bearing mice treated with fetal fetuin) of the same molecule?
A: Its value is 141%.

Q: Which results are given for “alpha 1-antitrypsin (without zinc): alpha 1-antitrypsin pre-incubated with EDTA without recharging with zinc [reference compound]”?
A: induction of apoptosis in cancer/tumor cell lines (in words) [1]: failed to induce apoptosis; apoptotic activity / morphology (in words) [2]: no apoptotic activity was seen

Q: With “HTFSGVASVE [SEQ ID NO: 1, H-T-F-S-G-V-A-S-V-E]” as the molecule, how does the induced apoptosis ([2]; 0.4 μM, four (4) hours) read?
A: The induced apoptosis was 52%.

Q: What about the “cells induced to apoptosis (in words)” value ([2]; 0.4 μM, six (6) hours) of the same molecule?
A: The value was “almost all”.

Q: What about the “induction of apoptosis (in words)” value [2, 12] of the same molecule?
A: The value was “induced apoptosis”.

Q: What about the “induction of apoptosis (in words)” value [5, 12] of the same molecule?
A: The value was “without affecting”.

Q: And the “apoptotic activity / membrane blebbing (in words)” value ([7]; chemically synthesized peptide, three (3) hours of incubation)?
A: Its value is “caused membrane “blebbing””.

Q: And the “potency relative to fetuin prepared from other methods” value ([7]; estimate)?
A: Its value is “several thousand times”.

Q: What about the “potency relative to Supercharged Zinc Fetuin” value ([7]; estimate, see FIG. 13) of the same molecule?
A: The value was “eight to ten times”.

Q: And the “induction of apoptosis (in words)” value [7, 12]?
A: Its value is “induced apoptosis”.

B1: alpha 2-HS glycoprotein (without zinc): alpha 2-HS glycoprotein pre-incubated with EDTA without recharging with zinc (protein, UniProt P02765 19-300; P02765 341-367, looked up)
Alpha-2-HS-glycoprotein chain … 1: APHGPGLIYRQPNCDDPETEEAALVAIDYINQNLPWGYKHTLNQIDEVKVWPQQPSGELFEIEIDTLETTCHVLDPTPVARCSVRQLKEHAVEGDCDFQLLKLDGKFSVVYAKCDSSPDSAEDVRKVCQDCPLLAPLNDTRVVHAAKAALAAFNAQNNGSNFQLEEISRAQLVPLPPSTYVEFTVSGTDCVAKEATEAAKCNLLAEKQYGFCKATLSEKLGGAEVAVTCMVFQTQPVSSQPQPEGANEAVPTPVVDPDAPPSPPLGAPGLPPAGSPPDSHVL
Alpha-2-HS-glycoprotein chain … 2: TVVQPSVGAAAGPVVPPCPGRIRHFKV
modifications: EDTA treated
notes: alpha 2-HS glycoprotein pre-incubated with EDTA without recharging with zinc
Q: Which results are given for B1?
A: induction of apoptosis in cancer/tumor cell lines (in words) [1]: fails to induce apoptosis; apoptotic activity / morphology (in words) [2]: no apoptotic activity was seen

B2: zinc charged alpha 2-HS glycoprotein: alpha 2-HS glycoprotein (Sigma), EDTA treated and charged with zinc acetate (protein, UniProt P02765 19-300; P02765 341-367, looked up)
Alpha-2-HS-glycoprotein chain … 1: B1 Alpha-2-HS-glycoprotein chain … 1
Alpha-2-HS-glycoprotein chain … 2: TVVQPSVGAAAGPVVPPCPGRIRHFKV
modifications: zinc charged
notes: alpha 2-HS glycoprotein (Sigma), EDTA treated and charged with zinc acetate
Q: How did the “apoptotic activity, panel of cell lines (in words)” value (shortened to “apoptotic activity, panel”) [4] turn out when B2 was run?
A: Its value is “induced apoptosis”.

Q: And the “apoptotic activity / morphology (in words)” value [2]?
A: Its value is “caused cell shrinkage and membrane blebbing”.

Q: And the “apoptotic activity, panel” value [2]?
A: The value was “induced apoptosis”.

Q: What about the “apoptotic activity, panel” value [6] of the same molecule?
A: Its value is “induced apoptosis”.

Q: And the “apoptotic activity, panel” value [7]?
A: Its value is “induced apoptosis”.

Q: What about the “apoptotic activity, panel” value [11] of the same molecule?
A: Its value is “induced apoptosis”.

Q: And the “apoptotic activity, panel” value [9]?
A: Its value is “induced apoptosis”.

B3: Fetuin purchased from Sigma: commercial fetuin prepared by ammonium sulfate precipitation and EDTA treatment (protein, UniProt P12763 19-359, looked up)
Alpha-2-HS-glycoprotein: IPLDPVAGYKEPACDDPDTEQAALAAVDYINKHLPRGYKHTLNQIDSVKVWPRRPTGEVYDIEIDTLETTCHVLDPTPLANCSVRQQTQHAVEGDCDIHVLKQDGQFSVLFTKCDSSPDSAEDVRKLCPDCPLLAPLNDSRVVHAVEVALATFNAESNGSYLQLVEISRAQFVPLPVSVSVEFAVAATDCIAKEVVDPTKCNLLAEKQYGFCKGSVIQKALGGEDVRVTCTLFQTQPVIPQPQPDGAEAEAPSAVPDAAGPTPSAAGPPVASVVVGPSVVAVPLPLHRAHYDLRHTFSGVASVESSSGEAFHVGKTPIVGQPSIPGGPVRLCPGRIRYFKI
Q: Which “induction of apoptosis in cancer/tumor cell lines (in words)” value [1] does the source give for B3 here?
A: Its value is “very low activity”.

Q: What about the “concentration at which apoptosis inducing activity was observed” value ([7]; long incubation time (2 days)) of the same molecule?
A: The value was over 250 µg/mL.

Q: What about the “concentration at which apoptosis was induced” value ([7]; long incubation time (2 days)) of the same molecule?
A: The value was over 5 mM.

B4: E. Coli-expressed fetuin: recombinant bovine fetuin expressed in E. Coli (protein, UniProt P12763 19-359, looked up)
Alpha-2-HS-glycoprotein: B3 Alpha-2-HS-glycoprotein
modifications: expressed in E. coli
Q: Which “apoptotic activity relative to supercharged zinc fetuin (Section 4F)” value [1] does the source give for B4 here?
A: Its value is “about 5 times”.

B5: natural fetuin: natural fetuin whose carbohydrate moiety was removed by certain enzymes (protein, UniProt P12763 19-359, looked up)
Alpha-2-HS-glycoprotein: B3 Alpha-2-HS-glycoprotein
modifications: deglycosylated
notes: natural fetuin whose carbohydrate moiety was removed by certain enzymes
Q: Which “boost of apoptotic inducing activity when carbohydrate moiety removed by certain enzymes” value [1] does the source give for B5 here?
A: Its value is 2-3 fold.

From US8247380B2, “Alpha 1-acid glycoprotein, alpha 2-HS glycoprotein, alpha 1-antitrypsin, and fragments thereof induce apoptosis in cancer cell lines” (Ambryx Biotechnology, D.C., priority 1997, dated 2012)
